Tests used:
C3H10T1/2 cells = assay: Oil Red-O staining of adipocyte differentiation, C3H10T1/2; format: cell-based, mouse; conditions: 25 µM, first 48 h of DIM induction or throughout the period of differentiation
Method: 3T3-L1 Mouse Embryonic Fibroblasts were purchased from American Type Culture Collection (ATCC CL-173). The cells were propagated and maintained in Dulbecco’s modified Eagle’s medium (DMEM, Gibco) supplemented with 10% calf serum (FCS) at 37 °C in 5% CO2 atmosphere. Subconfluents cells were expanded and utilized for the subsequent experiments at the passages 3–6. To induce differentiation, 2-day post-confluent 3T3-L1 pre-adipocytes were cultured for 48 h with DIM (DMEM supplemented with 10% fetal bovine serum (FBS), 1.0 µM Dexamethasone (G. Biosciences), 1.5 mg/mL Insulin (Sigma) and 0.5 mM IBMX (Sigma). Two days after induction the DIM medium was removed and the cells were maintained in DMED supplemented with 10% FBS and […] Insulin, which was replaced every 48 h, until the cells became fully differentiated (8–10 days after induction). C3H10T1/2 cells were purchased from American Type Culture Collection (ATCC, clone 8, CCL-226, were grown and induced to differentiate following the same protocol, with cell cultures < 3 passages. Oil Red-O staining was used as previously described. Briefly, cells were fixed for 30 min with 4% formaldehyde, stained with filtered Oil Red solution (0.2% oil red in 40% 2-propanol) and washed 5 times with distilled water. […] The dye was eluted with 100% 2-propanol and quantified spectroscopically at 510 nm (Synergy HT, Bio-Tek).

[1] = Lilly Open Innovation Drug Discovery high throughput screening
Text: CC-410 chemical structure was initially submitted to the Open Innovation Drug Discovery program[39] (Lilly Research Laboratories, Eli Lilly and Company, Indianapolis, USA), and it was selected for its novelty and drug-like properties, based on cheminformatic evaluation. Briefly, the submitted molecular structure was firstly processed based on the Lilly Medical Chemistry Rules, which are aimed at identifying and eventually excluding from screening those compounds that may interfere with biological assays. Next, structure-based filters, including MW, cLogP, solubility and toxicity among others were analyzed to select molecules with high druggable features. Additionally, the compound was also filtered based on the number of heavy atoms, number of rings, number of aromatic rings, ring size and other physicochemical properties. Solubility and permeability of the compound were also considered for the screening. For molecules passing the cheminformatic evaluation a substance check and comparison with known drugs (both Lilly and PubChem collections) was performed in order to select for novelty. Once the molecule passed this selection it was physically submitted to be tested with a high throughput screening study, querying the activity of the molecule against a wide variety of possible therapeutic targets.

DNMT1 = DNMT1 (Homo sapiens, UniProt P26358); assay: Methyltransferase Hot Spot radioisotope assay, DNMT1; format: biochemical; conditions: 10-dose, threefold dilution; CC-410 from 300 μM, control from 100 μM; substrate Poly dI-dC
Sequence of DNMT1 (P26358 whole entry, species assumed): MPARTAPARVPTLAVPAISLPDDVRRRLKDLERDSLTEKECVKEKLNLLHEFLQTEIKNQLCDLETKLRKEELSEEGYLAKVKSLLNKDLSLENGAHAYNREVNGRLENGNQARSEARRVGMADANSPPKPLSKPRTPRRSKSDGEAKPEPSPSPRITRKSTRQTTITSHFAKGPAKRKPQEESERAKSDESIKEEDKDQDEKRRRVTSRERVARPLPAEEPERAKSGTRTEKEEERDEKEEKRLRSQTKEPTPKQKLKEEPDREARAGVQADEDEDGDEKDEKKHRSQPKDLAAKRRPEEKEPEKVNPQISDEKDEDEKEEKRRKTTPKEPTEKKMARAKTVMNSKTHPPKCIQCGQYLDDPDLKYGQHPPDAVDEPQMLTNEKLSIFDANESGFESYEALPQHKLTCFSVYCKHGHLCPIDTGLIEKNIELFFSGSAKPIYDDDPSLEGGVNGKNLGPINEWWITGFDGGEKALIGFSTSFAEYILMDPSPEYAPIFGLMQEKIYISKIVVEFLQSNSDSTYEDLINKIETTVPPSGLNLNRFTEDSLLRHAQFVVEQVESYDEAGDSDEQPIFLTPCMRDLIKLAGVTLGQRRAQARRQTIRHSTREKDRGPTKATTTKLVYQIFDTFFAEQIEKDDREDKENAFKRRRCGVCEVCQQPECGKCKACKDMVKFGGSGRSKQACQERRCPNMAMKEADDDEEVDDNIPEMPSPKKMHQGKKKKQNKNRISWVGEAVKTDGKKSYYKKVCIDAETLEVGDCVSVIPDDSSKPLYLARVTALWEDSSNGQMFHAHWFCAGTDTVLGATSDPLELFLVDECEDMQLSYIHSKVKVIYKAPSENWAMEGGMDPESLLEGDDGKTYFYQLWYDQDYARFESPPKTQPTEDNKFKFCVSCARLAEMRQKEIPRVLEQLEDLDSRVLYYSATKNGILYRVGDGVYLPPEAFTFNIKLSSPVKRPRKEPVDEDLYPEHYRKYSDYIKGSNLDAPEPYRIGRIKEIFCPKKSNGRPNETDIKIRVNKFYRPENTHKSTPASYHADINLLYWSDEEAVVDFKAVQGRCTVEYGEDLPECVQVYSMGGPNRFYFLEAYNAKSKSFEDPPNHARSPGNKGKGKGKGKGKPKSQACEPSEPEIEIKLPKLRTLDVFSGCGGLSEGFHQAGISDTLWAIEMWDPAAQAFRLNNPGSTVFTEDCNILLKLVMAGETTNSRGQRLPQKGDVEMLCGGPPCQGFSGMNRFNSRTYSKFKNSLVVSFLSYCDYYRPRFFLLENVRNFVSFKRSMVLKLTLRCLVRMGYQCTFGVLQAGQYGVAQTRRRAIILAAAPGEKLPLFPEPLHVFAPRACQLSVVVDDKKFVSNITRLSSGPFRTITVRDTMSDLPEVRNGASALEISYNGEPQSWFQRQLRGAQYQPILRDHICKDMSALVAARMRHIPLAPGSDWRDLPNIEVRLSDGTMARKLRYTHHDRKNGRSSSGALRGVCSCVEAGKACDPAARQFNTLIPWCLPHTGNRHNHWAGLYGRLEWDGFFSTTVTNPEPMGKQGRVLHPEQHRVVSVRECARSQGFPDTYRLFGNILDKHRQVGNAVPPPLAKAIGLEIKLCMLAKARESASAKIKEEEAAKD
Method: (§1) CC-410 was screened in biochemical assays for activity against a panel of 11 methyltransferases (MT) by using the radioisotope (3H-AdoMet) based MT Hot Spot Assay. All the assays were performed by Reaction Biology Corporation (RBC, Malven, PA, USA). Briefly CC-410 was incubated with the selected MTs, corresponding substrates, and radiolabeled SAM (S-Adenosyl-L-[methyl-3 H]methionine). The specific MTs assessed, and the corresponding substrates are as follows: DNMT1- Poly dl-dC, DNMT3a- Lambda DNA, DNMT3b- Lambda DNA, DOT1L- Nucleosomes, EZH2 Complex- Core Histone, METTL21A- HSPA8-[CTD], NRMT1- RCC1, PRMT3- Histone H4, PRMT5/MEP50- Histone H2A, SET1b -Core Histone Complex and SMYD2- Nucleosomes. Reaction mixtures were incubated and spotted onto filter papers, which were then washed to remove unreacted SAM, leaving the bound radiolabeled product. Detection of the radiolabeled, methylated product was performed via a nanoliter-scale radioisotope filter binding platform. […] For each assay, control compounds were included as positive controls for enzyme function and assay reproducibility. […] IC50 was calculated by non-linear least square fitting dose–response curve.

DOT1L = target: T1, DOT1L (Homo sapiens, UniProt Q8TEK3); assay: Methyltransferase Hot Spot radioisotope assay, DOT1L; format: biochemical; conditions: 10-dose, threefold dilution; CC-410 from 300 μM, control from 100 μM; substrate Nucleosomes
T1 construct: purchased Reaction Biology Corporation
T1 sequence (Q8TEK3 whole entry, species assumed): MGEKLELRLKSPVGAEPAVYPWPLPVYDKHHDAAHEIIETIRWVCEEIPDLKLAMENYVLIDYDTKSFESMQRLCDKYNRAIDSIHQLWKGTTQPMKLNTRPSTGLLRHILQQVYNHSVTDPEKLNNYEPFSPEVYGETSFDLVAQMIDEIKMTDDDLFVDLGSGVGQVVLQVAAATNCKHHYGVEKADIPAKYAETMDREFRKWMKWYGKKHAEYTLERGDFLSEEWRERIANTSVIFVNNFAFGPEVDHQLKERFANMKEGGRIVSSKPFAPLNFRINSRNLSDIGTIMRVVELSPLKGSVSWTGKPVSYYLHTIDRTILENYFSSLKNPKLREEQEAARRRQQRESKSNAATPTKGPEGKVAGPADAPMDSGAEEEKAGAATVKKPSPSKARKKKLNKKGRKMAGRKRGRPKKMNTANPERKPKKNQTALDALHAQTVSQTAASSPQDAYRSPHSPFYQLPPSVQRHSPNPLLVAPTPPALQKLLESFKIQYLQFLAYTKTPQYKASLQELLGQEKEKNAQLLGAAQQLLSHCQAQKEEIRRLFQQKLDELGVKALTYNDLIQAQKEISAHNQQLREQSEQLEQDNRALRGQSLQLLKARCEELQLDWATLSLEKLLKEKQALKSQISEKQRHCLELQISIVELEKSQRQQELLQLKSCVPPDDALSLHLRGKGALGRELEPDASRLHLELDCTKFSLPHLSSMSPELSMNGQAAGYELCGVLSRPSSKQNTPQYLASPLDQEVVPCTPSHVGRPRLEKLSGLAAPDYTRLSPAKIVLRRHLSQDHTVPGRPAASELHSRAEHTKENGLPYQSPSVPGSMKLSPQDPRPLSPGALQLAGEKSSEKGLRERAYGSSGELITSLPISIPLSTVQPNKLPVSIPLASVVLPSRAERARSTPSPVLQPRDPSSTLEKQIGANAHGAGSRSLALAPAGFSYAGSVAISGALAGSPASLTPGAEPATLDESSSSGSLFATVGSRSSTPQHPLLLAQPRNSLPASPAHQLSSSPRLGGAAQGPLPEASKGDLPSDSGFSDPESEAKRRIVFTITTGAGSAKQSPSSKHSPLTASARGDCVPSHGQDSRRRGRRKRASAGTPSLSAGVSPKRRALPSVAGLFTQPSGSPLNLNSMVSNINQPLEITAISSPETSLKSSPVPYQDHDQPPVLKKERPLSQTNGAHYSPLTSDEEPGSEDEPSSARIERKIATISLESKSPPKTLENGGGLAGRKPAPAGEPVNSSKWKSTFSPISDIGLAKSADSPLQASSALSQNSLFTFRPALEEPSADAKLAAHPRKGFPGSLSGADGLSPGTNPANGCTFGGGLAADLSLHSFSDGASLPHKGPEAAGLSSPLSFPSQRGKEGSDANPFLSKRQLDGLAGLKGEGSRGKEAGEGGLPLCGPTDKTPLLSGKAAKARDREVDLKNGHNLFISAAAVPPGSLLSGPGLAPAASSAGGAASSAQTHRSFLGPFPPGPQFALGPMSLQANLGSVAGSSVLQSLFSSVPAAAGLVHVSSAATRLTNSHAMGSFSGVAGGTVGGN
Method: as §1

NRMT1 = target: T2, NRMT1 (Homo sapiens, UniProt Q9BV86); assay: Methyltransferase Hot Spot radioisotope assay, NRMT1; format: biochemical; conditions: 10-dose, threefold dilution; CC-410 from 300 μM, control from 100 μM; substrate RCC1
T2 sequence (Q9BV86 1-223): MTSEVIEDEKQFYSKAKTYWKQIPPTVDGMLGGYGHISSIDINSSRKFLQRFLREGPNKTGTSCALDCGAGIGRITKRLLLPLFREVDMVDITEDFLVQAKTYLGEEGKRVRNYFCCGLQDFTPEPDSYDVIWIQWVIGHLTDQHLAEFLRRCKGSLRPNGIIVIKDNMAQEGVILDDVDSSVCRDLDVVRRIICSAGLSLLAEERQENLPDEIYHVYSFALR
Method: as §1

3T3-L1 cells = assay: CellTiter-Blue cell viability assay, 3T3-L1; format: cell-based, mouse; conditions: highest concentration (1–25 uM tested), assessed at terminal differentiation
Method: CellTiter-Blue® Cell Viability Assay (Promega) was used following the manufacturer’s instructions. 3T3-L1 cells were seeded at a density of 2 × 10^3 cells per well in 96-well plates and cultured till confluence in standard medium. Two-day post-confluent 3T3-L1 cells were induced with DIM and treated with 1, 5, 10 and 25 µM CC-410 along with an untreated control (0.5% DMSO) in 4 different conditions: every 48 h throughout the differentiation period; once in the first 20 h following DIM stimulation; once 48 h after DIM stimulation; or after the early differentiation phase. In all cases, cell viability was assessed at terminal differentiation. Cell viability percentages were calculated by normalizing the fluorescence recorder (560/590) for the treated samples over untreated controls.

EZH2 Complex = target: T3, EZH2 Complex (Homo sapiens, UniProt Q15910); assay: Methyltransferase Hot Spot radioisotope assay, EZH2 Complex; format: biochemical; conditions: 10-dose, threefold dilution; CC-410 from 300 μM, control from 100 μM; substrate Core Histone
T3 construct: purchased Reaction Biology Corporation
Method: as §1

COC(=O)CCC(C)C1CCC2C3C(N)CC4CC(OC(C)=O)CCC4(C)[C@H]3CC(N)C12C (stereo in doubt) [CC-410, Methyl-(4S)-4-((3S,5S,7S,8S,10R,12R,13S,14R,17S)-3-acetoxy-7,12-diamino-10,13-dimethylhexadecahydro-1H-cyclopenta[a]phenanthren-17-yl) pentanoate]
effect on adipogenesis (C3H10T1/2 cells): effectively inhibit adipogenesis | activity against a wide variety of possible therapeutic targets [1]: exclusive inhibitory activity against human NNMT | IC50* (M) DNMT1 (DNMT1): no inhibition or compound activity that could not be fitted to an IC50 curve | IC50* (M) DOT1L (DOT1L): no inhibition or compound activity that could not be fitted to an IC50 curve | IC50* (M) NRMT1 (NRMT1): no inhibition or compound activity that could not be fitted to an IC50 curve | cell viability (3T3-L1 cells): only a slight reduction in cell viability | IC50* (M) EZH2 Complex (EZH2 Complex): no inhibition or compound activity that could not be fitted to an IC50 curve
